In patent publication US20230110378A1, “MONOBACTAM COMPOUND AND USE THEREOF” (EVOPOINT BIOSCIENCES CO., LTD., priority 2019, published 2023):
Converted amounts (≈) assume the structure as drawn.

Legend:
Test in all cases: Minimum inhibitory concentration (broth microdilution, CLSI)
Assay type in all cases: cell-based
[1] = system: Escherichia coli HDBEC 30016; details: HDBEC30016
Protocol: (§1) 103 bacterial strains used for the minimum inhibitory concentration test were frozen in a −80° C. ULT freezer and thawed 2 days before use. A small amount of frozen microorganism bacteria were scraped using a sterile inoculating loop, streaked onto a suitable solid culture dish for inoculation, and then cultured for about 20 h at 35 t 2° C. in a normal incubator. • Proteus mirabilis HDBPM 40: MA, normal atmospheric environment • The remaining 102 strains of bacteria: TSA, normal atmospheric environment
(§2) 5-10 colonies with similar morphology were picked from the culture dish using a sterile inoculating loop and then re-streaked onto a corresponding solid culture dish. Then the dish was incubated in a normal incubator at 35 t 2° C. for about 20 h.
(§3) 5-10 single microbial colonies were picked from the solid culture dish, resuspended in 500 μL of sterile normal saline (0.9% NaCl), and adjusted to an OD600 of about 0.15 with a spectrophotometer.
(§4) The bacteria were then diluted 300-fold with 1.02×CAMHB to an inoculation concentration of 2×10^5 CFU/mL.
(§5) • There were a total of 3 assay plate patterns, one of which was used for each assay. • 8 rows of the assay plate (rows A-H) were for 8 test compounds, respectively. The highest test concentration of the compounds was 16, 32 or 64 μg/mL, and each compound was diluted 2-fold. • Growth control (GC): a medium containing microbial inoculum (1.02×CAMHB) and dimethylsulfoxide (DMSO) but no compound.
(§6) The test and reference compounds were dissolved in DMSO or H2O to prepare 6.4 mg/mL stock solutions. The stock solutions were diluted to prepare standby solutions with certain concentrations, and the volumes of the standby solutions were determined according to the experimental design. Corresponding volumes of the standby solutions were transferred to the starting wells of a dilution plate (A1-H1), and half the starting-well volume of DMSO to the other wells. Each compound was diluted 2-fold sequentially from column 1 to column 11 (e.g., transferring 30 μL of DMSO to columns 2-12 first, then pipetting 30 μL of the compounds from column 1 to column 2 and mixing them well, then pipetting 30 μL of the compounds from column 2 to column 3 and mixing them well, then pipetting 30 μL of the compounds from column 3 to column 4 and mixing them well, and so on to column 11).
(§7) 1 or 2 μL of the compounds and DMSO were transferred from the compound plate to corresponding wells of the assay plates.
(§8) 98 μL of corresponding bacterial inocula were added to the assay plates.
(§9) After addition, the assay plates were covered with sterile covers. The mixtures in the assay plates were centrifuged in a centrifuge at 800 rpm for 30 s, mixed well on a microplate shaker at 400 rpm for 1 min, and incubated in a normal incubator at 35 t 2° C. for 20-24 h.
(§10) The assay plates were placed on a plate reading device, and the speculum was adjusted to observe and record the growth condition of bacteria in each well. In the mean time, each assay plate was photographed with QCount system.
(§11) The minimum inhibitory concentration of each compound was recorded by reference to guidelines from the Clinical and Laboratory Standards Institute.
(§12) The minimum inhibitory concentrations of the compounds against experimental strains were tested in this study by reference to the medium microdilution method as indicated by the Clinical and Laboratory Standards Institute. Compounds were diluted two-fold in 96-well plates from the highest detection concentration of 16, 32 or 64 μg/mL. The bacterial inocula in the assay plates were thawed from corresponding medium plates and diluted in 1.02×CAMHB, while growth controls (GC wells) were set up in the assay plates. The minimum inhibitory concentration of each compound against different bacteria was observed and recorded after the assay plates were incubated in a normal incubator at 35 t 2° C. for about 20 h. The minimum inhibitory concentration values for the different compounds are listed in the list below.

[2] = system: Klebsiella pneumoniae HDBKP 30006; details: HDBKP30006
Protocol: as §1, §2, §3, §4, §5, §6, §7, §8, §9, §10, §11, §12

[3] = system: Klebsiella pneumoniae HDBKP 9249; details: HDBKP9249
Protocol: as §1, §2, §3, §4, §5, §6, §7, §8, §9, §10, §11, §12

[4] = system: Pseudomonas aeruginosa HDBPA 5679; details: HDBPA5679
Protocol: as §1, §2, §3, §4, §5, §6, §7, §8, §9, §10, §11, §12

[5] = system: Proteus mirabilis HDBPM 40; details: HDBPM40
Protocol: as §1, §2, §3, §4, §5, §6, §7, §8, §9, §10, §11, §12

[6] = system: Enterobacter cloacae HDBECL 30030; details: HDBECL30030
Protocol: as §1, §2, §3, §4, §5, §6, §7, §8, §9, §10, §11, §12

[7] = system: Klebsiella pneumoniae HDBKP 9153; details: HDBKP9153
Protocol: as §1, §2, §3, §4, §5, §6, §7, §8, §9, §10, §11, §12

[8] = system: Escherichia coli HDBEC 30008; details: HDBEC30008
Protocol: as §1, §2, §3, §4, §5, §6, §7, §8, §9, §10, §11, §12

[9] = system: Escherichia coli HDBEC 30048; details: HDBEC30048
Protocol: as §1, §2, §3, §4, §5, §6, §7, §8, §9, §10, §11, §12

MIC [1] [µg/mL]	MIC [2] [µg/mL]	MIC [3] [µg/mL]	MIC [4] [µg/mL]	MIC [5] [µg/mL]	MIC [6] [µg/mL]	MIC [7] [µg/mL]	MIC [8] [µg/mL]	MIC [9] [µg/mL]	Compound
< 4	4 to 8 (≈ 5.2 to 10.4 µM)	4 to 8 (≈ 5.2 to 10.4 µM)	< 4	< 4	< 4	< 4	< 4	< 4	CC(C)(O/N=C(\C(=O)N[C@@H]1C(=O)N(S(=O)(=O)O)[C@@H]1CNC(=O)c1cc([C@@H]2CCN(C(=O)c3ccc(O)c(O)c3F)C2)no1)c1csc(N)n1)C(=O)O [Compound I-8]
8 to 16	< 4	< 4	> 16	< 4	< 4	< 4	< 4	8 to 16	C[n+]1cc(-c2ncc(C(=O)NC[C@@H]3[C@H](NC(=O)/C(=N\OC(C)(C)C(=O)O)c4csc(N)n4)C(=O)N3S(=O)(=O)O)s2)cn1CCCNC(=N)N [Compound I-11]
> 16	4 to 8	< 4	> 16	< 4	< 4	> 16	4 to 8	> 16	C[n+]1cc(-c2cc(C(=O)NC[C@@H]3[C@H](NC(=O)/C(=N\OC(C)(C)C(=O)O)c4csc(N)n4)C(=O)N3S(=O)(=O)O)on2)cn1CCCN [Compound I-1]
4 to 8 (≈ 5.22 to 10.4 µM)	> 16	4 to 8 (≈ 5.22 to 10.4 µM)	< 4	< 4	< 4	< 4	< 4	< 4	Nc1nc(/C(=N/OC2(C(=O)O)CC2)C(=O)N[C@@H]2C(=O)N(S(=O)(=O)O)[C@@H]2CNC(=O)c2cc([C@@H]3CCN(C(=O)c4cc(=O)c(O)cn4O)C3)no2)cs1 [Compound I-22]
4 to 8 (≈ 5.22 to 10.4 µM)	> 16	< 4	< 4	< 4	< 4	< 4	< 4	< 4	Nc1nc(/C(=N/OC2(C(=O)O)CC2)C(=O)N[C@H]2C(=O)N(S(=O)(=O)O)[C@H]2CNC(=O)c2cc([C@@H]3CCN(C(=O)c4cc(=O)c(O)cn4O)C3)no2)cs1 [Compound I-17]
> 16	> 16	> 16	< 4	< 4	< 4	< 4	< 4	< 4	CC(C)(O/N=C(\C(=O)N[C@H]1C(=O)N(S(=O)(=O)O)[C@H]1CNC(=O)c1cc([C@@H]2CCN(C(=O)c3cc(=O)c(O)cn3O)C2)no1)c1csc(N)n1)C(=O)O [Compound I-21]

The remaining lines, values behind:

Compound	MIC [1] [µg/mL]	MIC [2] [µg/mL]	MIC [3] [µg/mL]	MIC [4] [µg/mL]	MIC [5] [µg/mL]	MIC [6] [µg/mL]	MIC [7] [µg/mL]	MIC [8] [µg/mL]	MIC [9] [µg/mL]
C[n+]1cc(-c2ncc(C(=O)NC[C@@H]3[C@H](NC(=O)/C(=N\OC(C)(C)C(=O)O)c4nsc(N)n4)C(=O)N3S(=O)(=O)O)s2)cn1CC(N)CN (stereo partly drawn) [Compound I-15]	> 16	> 16	> 16	> 16	< 4	4 to 8	> 16	4 to 8	> 16
CC(C)(O/N=C(\C(=O)N[C@@H]1C(=O)N(S(=O)(=O)O)[C@@H]1CNC(=O)c1cc(-c2cc[n+](CCNC(=N)N)cc2)no1)c1csc(N)n1)C(=O)O [Compound I-3]	> 16	4 to 8	< 4	> 16	< 4	< 4	> 16	< 4	> 16
CC(C)(O/N=C(\C(=O)N[C@@H]1C(=O)N(S(=O)(=O)O)[C@@H]1CNC(=O)c1cc([C@@H]2CCN(CCNC(=O)c3cc(=O)c(O)c[nH]3)C2)no1)c1csc(N)n1)C(=O)O [Compound I-39]	> 16	8 to 16 (≈ 10.1 to 20.1 µM)	8 to 16 (≈ 10.1 to 20.1 µM)	< 4	< 4	< 4	< 4	< 4	< 4
C[n+]1cc(-c2ncc(C(=O)NC[C@@H]3[C@H](NC(=O)/C(=N\OC(C)(C)C(=O)O)c4csc(N)n4)C(=O)N3S(=O)(=O)O)s2)cn1CC(N)CN (stereo partly drawn) [Compound I-9]	> 16	4 to 8	< 4	> 16	< 4	< 4	8 to 16	< 4	> 16
CC(C)(O/N=C(\C(=O)N[C@@H]1C(=O)N(S(=O)(=O)O)[C@@H]1CNC(=O)c1cnc([C@@H]2CC[N+](C)(CCNC(=O)c3ccc(O)c(O)c3Cl)C2)s1)c1csc(N)n1)C(=O)O (stereo partly drawn) [Compound I-34]	< 4	4 to 8	8 to 16	< 4	< 4	< 4	< 4	< 4	< 4
Cc1c(C(=O)NCCN2CC[C@@H](c3cc(C(=O)NC[C@@H]4[C@H](NC(=O)/C(=N\OC(C)(C)C(=O)O)c5csc(N)n5)C(=O)N4S(=O)(=O)O)on3)C2)n(O)c(C)c(O)c1=O [Compound I-45]	8 to 16 (≈ 9.54 to 19.1 µM)	8 to 16 (≈ 9.54 to 19.1 µM)	8 to 16 (≈ 9.54 to 19.1 µM)	< 4	< 4	< 4	< 4	< 4	< 4
CC(C)(O/N=C(\C(=O)N[C@@H]1C(=O)N(S(=O)(=O)O)[C@@H]1CNC(=O)c1cnc([C@@H]2CCN(CCNC(=O)c3ccc(O)c(O)c3Cl)C2)s1)c1csc(N)n1)C(=O)O [Compound I-41]	< 4	< 4	4 to 8 (≈ 4.74 to 9.48 µM)	< 4	< 4	< 4	< 4	< 4	< 4
Nc1nc(/C(=N/OC2(C(=O)O)CC2)C(=O)N[C@@H]2C(=O)N(S(=O)(=O)O)[C@@H]2CNC(=O)c2cc([C@@H]3CCN(C(=O)c4ccc(O)c(O)c4Cl)C3)no2)cs1 [Compound I-23]	< 4	8 to 16 (≈ 10.2 to 20.4 µM)	< 4	< 4	< 4	< 4	< 4	< 4	< 4
Nc1nc(/C(=N/OC2(C(=O)O)CC2)C(=O)N[C@@H]2C(=O)N(S(=O)(=O)O)[C@@H]2CNC(=O)c2cc([C@H]3CCN(C(=O)c4cc(=O)c(O)cn4O)C3)no2)cs1 [Compound I-25]	4 to 8 (≈ 5.22 to 10.4 µM)	> 16	4 to 8 (≈ 5.22 to 10.4 µM)	< 4	< 4	< 4	< 4	< 4	< 4
C[N+]1(CCNC(=O)c2ccc(O)c(O)c2Cl)CC[C@@H](c2cc(C(=O)NC[C@@H]3[C@H](NC(=O)/C(=N\OC4(C(=O)O)CC4)c4csc(N)n4)C(=O)N3S(=O)(=O)O)on2)C1 (stereo partly drawn) [Compound I-24]	8 to 16	8 to 16	< 4	< 4	< 4	< 4	< 4	< 4	< 4
CC(C)(O/N=C(\C(=O)N[C@@H]1C(=O)N(S(=O)(=O)O)[C@@H]1CNC(=O)c1cc(-c2cc[n+](CCN)cc2)no1)c1csc(N)n1)C(=O)O [Compound I-4]	> 16	> 16	< 4	> 16	< 4	4 to 8	> 16	4 to 8	> 16
